# Experimental data taken from patent US10995091B2 (Proximagen, LLC, priority 2010, dated 2021).
# Assays:
# [1] = test system: haematopoietic stem cells; settings: donors or patients; background statement; cited from earlier work
# HIV-1IIIB (CXCR4-tropic) = experiment: HIV anti-viral assay in MAGI-CCR5 cells (β-galactosidase reporter); assay type: cell-based; settings: Human immunodeficiency virus 1, 48 hours with compound and virus, read-out: IC50, HIV-1 antiviral activity
# Method: Example 30 was also tested in an HIV antiviral assay that detects compounds that block HIV-1IIIB (CXCR4-tropic) replication via targets in the viral life cycle. The anti-viral assay uses MAGI-CCR5 cells that naturally express CXCR4 which were engineered to express high levels of CD4 and CCR5 and to contain one copy of the HIV-1 LTR promoter driving expression of the β-galactosidase gene upon HIV 1 Tat transactivation. Cells are incubated with Example 30 and the CXCR4-tropic virus HIV-1IIIB for 48 hours after which antiviral efficacy is measured as the inhibition of β-galactosidase reporter expression and cytotoxicity is monitored by MTS staining.
# [2] = test system: multipotential mixed hematopoietic progenitors (CFU-GEMM); experiment: In vivo mobilization of hematopoietic progenitors, colony forming cell assay (CFU-GEMM) from peripheral blood; settings: C57BL/6 mice, one hour after treatment, compared to G-CSF treatment alone
# Method: (§1) The study investigated the ability of Example 30 alone and in combination with G-CSF to induce in vivo mobilization of white blood cells in C57BL/6 mice, as well as hematopoietic progenitors from bone marrow to peripheral blood as assessed by the evaluation of the frequency of colony forming cell colonies (CFC). Peripheral blood samples from each test group were collected 1 hour post injection. The white blood cell count (WBC) was determined from the peripheral blood collected for each individual mouse. Clonogenic progenitors of the multipotential (CFU-GEMM) lineages were assessed. Peripheral blood cells were added to MethoCult® 3434 in triplicate cultures for plating (0.5-3×10^5 cells/dish). Cultures were incubated for 8 days at 37° C., 5% CO2 in humidified incubators. CFU-GEMM colony number was enumerated microscopically using an inverted microscope from appropriately plated culture dishes.
# [3] = test system: HIV-1IIIB (CXCR4-tropic) virus; experiment: CXCR4-tropic HIV-1 attachment assay in MAGI-CCR5 cells (β-galactosidase reporter); assay type: cell-based; settings: Human immunodeficiency virus 1, MAGI-CCR5, read-out: IC50, inhibition of attachment of CXCR4-tropic HIV-1
# Method: Example 30 was tested in an HIV attachment assay, which detects compounds that block HIV-1IIIB (CXCR4-tropic) virus attachment to cells.
# The CXCR4-tropic HIV-1 attachment assay uses MAGI-CCR5 cells that naturally express CXCR4 which were engineered to express high levels of CD4 and CCR5 and to contain one copy of the HIV-1 LTR promoter driving expression of the β-galactosidase gene upon HIV-1 Tat transactivation. Cells are incubated with Example 30 and the CXCR4-tropic virus HIV-1IIIB for 3 hours before washing to remove drug and unbound virus. Fresh media is added and the plates are incubated for 48 hours after which antiviral efficacy is measured as the inhibition of β-galactosidase reporter expression and cytotoxicity is monitored by MTS staining.
# [4] = test system: circulating white blood cells (WBC); experiment: In vivo mobilization of white blood cells (WBC count in peripheral blood); settings: C57BL/6 mice
# Method: as §1
# [5] = molecular target: T1, Human CXCR4 transfected HEK293 cells (Homo sapiens, UniProt P61073); experiment: CXCR4 functional calcium assay (calcium flux FLIPR, antagonism of SDF1 response); assay type: cell-based; settings: CXCR4 functional activity, antagonism of SDF1 (EC50 concentration), read-out: CXCR4 fKi
# T1 construct: expressed in transfected cells; host or cells: HEK293
# T1 sequence (P61073 whole entry): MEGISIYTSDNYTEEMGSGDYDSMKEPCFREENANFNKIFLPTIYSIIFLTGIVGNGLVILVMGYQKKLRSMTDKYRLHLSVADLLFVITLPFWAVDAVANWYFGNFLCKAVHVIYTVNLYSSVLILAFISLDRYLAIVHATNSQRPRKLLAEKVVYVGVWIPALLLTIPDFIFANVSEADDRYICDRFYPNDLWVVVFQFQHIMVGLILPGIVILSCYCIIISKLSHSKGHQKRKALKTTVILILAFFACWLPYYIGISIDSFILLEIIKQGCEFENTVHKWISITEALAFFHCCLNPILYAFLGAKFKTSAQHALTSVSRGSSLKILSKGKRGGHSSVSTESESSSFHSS
# Outline: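 HEK293 cells stably transfected with human CXCR4 were loaded with 2 μM Fluo-4 AM in HBSS containing 2.5 mM probenecid, 0.1% BSA and 10 mM HEPES at pH 7.4 and 37° C. Compound was added first, then SDF1 at its EC50 concentration, and intracellular calcium fluorescence was followed on a FLIPR. Antagonist dose-response curves were fitted.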
Compound,Ki [5] [nM],also measured
c1cc(CN2CCCNCCNCCCNCC2)ccc1CN1CCCNCCNCCCNCC1 [Mozobil],–,success rate of stem cell mobilisation (sufficient yield) [1]: ~90%
"CC(C)N1CCC(N2CCCN(c3cccc(C(=O)Nc4ccncc4)n3)CC2)CC1 [Example 30, 6-{4-[1-(Propan-2-yl)piperidin-4-yl]-1,4-diazepan-1-yl}-N-(pyridin-4-yl)pyridine-2-carboxamide]",< 20,"IC50 (HIV-1IIIB (CXCR4-tropic)): 30 nM; multipotential mixed hematopoietic progenitors (CFU-GEMM/ml), in combination with G-CSF [2]: significant increase; IC50 [3]: 40 nM; circulating white blood cells (WBC) ([4]; 1 hour after treatment, compared to vehicle control group): significant increase; circulating white blood cells (WBC), in combination with G-CSF ([4]; after 1 hour, in combination with G-CSF, compared to G-CSF alone): significant increase"
"CC(C)N1CCN(C)[C@H](CN2CCCN(c3cccc(C(=O)Nc4ccncc4)n3)CC2)C1 [Example 202, 6-(4-{[(2R)-1-Methyl-4-(propan-2-yl)piperazin-2-yl]methyl}-1,4-diazepan-1-yl)-N-(pyridin-4-yl)pyridine-2-carboxamide]",500 to 1000,–
"CCN1CCC(N2CCCN(c3cccc(C(=O)NCC4CC4)n3)CC2)CC1 [Example 60, N-(Cyclopropylmethyl)-6-[4-(1-ethylpiperidin-4-yl)-1,4-diazepan-1-yl]pyridine-2-carboxamide]",500 to 1000,–
"CCCCNC(=O)c1cccc(N2CCCN(CC3CN(C(C)C)CCO3)CC2)n1 (centres unmarked) [Example 250, N-Butyl-6-(4-{[4-(propan-2-yl)morpholin-2-yl]methyl}-1,4-diazepan-1-yl)pyridine-2-carboxamide]",20 to 100,–
"O=C(NCCCn1ccnc1)c1cccc(N2CCCN(C3CCN(Cc4ccccc4Cl)CC3)CC2)n1 [Example 139, 6-(4-{1-[(2-Chlorophenyl)methyl]piperidin-4-yl}-1,4-diazepan-1-yl)-N-[3-(1H-imidazol-1-yl)propyl]pyridine-2-carboxamide]",100 to 500,–
"CC(C)N1CCC(N2CCN(c3cccc(C(=O)NCC4CC4)n3)CC(O)C2)CC1 (centres unmarked) [Example 183, N-(Cyclopropylmethyl)-6-{6-hydroxy-4-[1-(propan-2-yl)piperidin-4-yl]-1,4-diazepan-1-yl}pyridine-2-carboxamide]",100 to 500,–
"Cc1nc(-c2cccc(NCCNC[C@@H]3CCN(C4CCCC4)C3)n2)[nH]c1C1CC1 [Example 247, {[(3S)-1-Cyclopentylpyrrolidin-3-yl]methyl}(2-{[6-(5-cyclopropyl-4-methyl-1H-imidazol-2-yl)pyridin-2-yl]amino}ethyl)amine]",20 to 100,–
"O=C(NCC1CC1)c1cccc(N2CCCN(C3CCN(C(CF)CF)CC3)CC2)n1 [Example 59, N-(Cyclopropylmethyl)-6-{4-[1-(1,3-difluoropropan-2-yl)piperidin-4-yl]-1,4-diazepan-1-yl}pyridine-2-carboxamide]",100 to 500,–
"Cc1cc2nc(-c3cccc(N4CCCN(C5CCN(C(C)C)CC5)CC4)n3)[nH]c2cc1C [Example 146, 5,6-Dimethyl-2-(6-{4-[1-(propan-2-yl)piperidin-4-yl]-1,4-diazepan-1-yl}pyridine-2-yl)-1H-1,3-benzodiazole]",100 to 500,–

# Second part, led by results:
Ki [5] [nM],Compound,also measured
20 to 100,"CC(C)N1CCC(N2CCCN(c3cccc(C(=O)NCCc4ccccn4)n3)CC2)CC1 [Example 46, 6-{4-[1-(Propan-2-yl)piperidin-4-yl]-1,4-diazepan-1-yl}-N-[2-(pyridin-2-yl)ethyl]pyridine-2-carboxamide]",–
100 to 500,"CC(C)N1CCC(N2CCCN(c3cccc(-c4nnn(C)n4)n3)CC2)CC1 [Example 168, 1-[6-(2-Methyl-2H-1,2,3,4-tetrazol-5-yl)pyridin-2-yl]-4-[1-(propan-2-yl)piperidin-4-yl]-1,4-diazepane]",–
100 to 500,"CC(C)N1CCC(N2CCCN(c3cccc(C(=O)NC[C@H]4CCCO4)n3)CC2)CC1 [Example 20, N-[(2R)-Oxolan-2-ylmethyl]-6-{4-[1-(propan-2-yl)piperidin-4-yl]-1,4-diazepan-1-yl}pyridine-2-carboxamide]",–
< 20,"CC(C)N1CCC(N2CCCN(c3cccc(C(=O)Nc4ccccc4)n3)CC2)CC1 [Example 23, N-Phenyl-6-{4-[1-(propan-2-yl)piperidin-4-yl]-1,4-diazepan-1-yl}pyridine-2-carboxamide]",–
100 to 500,"CC(C)N1CCC(N2CCCN(c3cccc(-c4noc(C5CC5)n4)n3)CC2)CC1 [Example 161, 1-[6-(5-Cyclopropyl-1,2,4-oxadiazol-3-yl)pyridine-2-yl]-4-[1-(propan-2-yl)piperidin-4-yl]-1,4-diazepane]",–
< 20,"CC(C)N1CCC(N2CCCN(c3cccc(-c4ncc(C5CC5)[nH]4)n3)CC2)CC1 [Example 111, 1-[6-(4-Cyclopropyl-1H-imidazol-2-yl)pyridine-2-yl]-4-[1-(propan-2-yl)piperidin-4-yl]-1,4-diazepane]",–
20 to 100,"CC(C)N1CCC(N2CCCN(c3cccc(C(=O)NCCn4ccnc4)n3)CC2)CC1 [Example 45, N-[2-(1H-Imidazol-1-yl)ethyl]-6-{4-[1-(propan-2-yl)piperidin-4-yl]-1,4-diazepan-1-yl}pyridine-2-carboxamide]",–
< 20,"CC(C)N1CCC(N2CCCN(c3cccc(C(=O)Nc4nccs4)n3)CC2)CC1 [Example 31, 6-{4-[1-(Propan-2-yl)piperidin-4-yl]-1,4-diazepan-1-yl}-N-(1,3-thiazol-2-yl)pyridine-2-carboxamide]",–
